According to patent US8338565B2, “Macrocyclic compounds for inhibition of tumor necrosis factor alpha” (Ensemble Therapeutics Corporation, priority 2008, dated 2012):
Like-named read-outs stand apart in the source and are kept apart here. Numbered stars: 1 amine (or outer) side, 2 acyl side, 3 side chain; on linkers, the order of the positions; unused ones are H or OH. Bridge positions count the residues as written; N and C are the ends. Square brackets hold non-standard residues; d marks the D form. Peptide text beside a SMILES is read from it. Phe(4-CF3) = N[C@@H](Cc1ccc(C(F)(F)F)cc1)C(=O)O; Bip = N[C@@H](Cc1ccc(-c2ccccc2)cc1)C(=O)O; Phe(4-NH2) = Nc1ccc(C[C@H](N)C(=O)O)cc1; d(hPhe) = N[C@H](CCc1ccccc1)C(=O)O; d2Thi = N[C@H](Cc1cccs1)C(=O)O; Suc = O=C(CCC(=O)[*:2])[*:1]

Legend:
[1] = biological target: T1, TNFα / TNFα receptor (TNFα R1/Fc) (Homo sapiens, UniProt P01375); assay: Inhibition of binding of TNFα to the TNFα receptor (plate ELISA competition); details: Table 2
T1 construct: purchased R&D Systems
T1 sequence (P01375 77-233 limits assumed, species assumed): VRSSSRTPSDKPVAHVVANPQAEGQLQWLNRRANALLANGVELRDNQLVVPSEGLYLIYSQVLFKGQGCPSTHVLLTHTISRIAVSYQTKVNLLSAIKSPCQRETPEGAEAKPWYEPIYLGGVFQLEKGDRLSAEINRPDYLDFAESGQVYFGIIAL
How it was run: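 Plates were coated with TNFα at 15 nM. Test compound and 8.33 nM receptor-Fc (PBST, 2% DMSO) were first mixed in solution for 30 min at room temperature, then transferred to the plates for another 30 min. Competition was read by absorbance at 450 nm after HRP anti-human IgG Fc detection with TMB.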

rat paw edema model = assay: Rat paw edema model (carrageenan), anti-inflammatory activity; format: in vivo, Sprague-Dawley (SD) rats
Protocol: Compounds 3, 4, 10 and 202 were tested in a rat paw edema model to determine anti-inflammatory activity. Seven groups (one for Vehicle A [15 mL PEG400, 3 mL Graves Grain alcohol (190 proof), 1.8 mL dimethylacetamide and 10.2 mL deionized water] alone as a negative control, one for Vehicle B [0.1M NaHCO3] alone as a negative control, one for each of the four test compounds dissolved in Vehicle A, and one for indomethacin dissolved in Vehicle B as a positive control), each group containing six Sprague-Dawley (SD) rats (180-200 g) randomized by weight. Initial paw volumes were measured by placing the right hind limb of the rat up to the top of the hock in a beaker of water sitting on a scale that had been tared to zero and recording the readout.
Rats were pre-treated with either i) one of the test compounds, or ii) a positive or negative control. Vehicle A alone and test compound dissolved in Vehicle A (Compound 3-1.0 mg/kg; Compound 4-0.4 mg/kg; Compound 10-0.5 mg/kg; Compound 202-0.3 mg/kg) were administered by intravenous injection. Vehicle B alone and indomethacin (5 mg/kg in 0.1M NaHCO3) was administered by intraperitoneal injection. Thirty minutes after this pretreatment, rats were anesthetized and injected with 0.1 mL of carrageenan (10 mg/mL in water) in the subplantar region of the right hind foot using a ½ inch 26 gauge needle attached to a 1 cc syringe.
At 2, 4 and 6 hours post-carrageenan injection, the right hind foot of each rat was measured for paw volume as described above.
We next investigated the effect of varying intravenous doses of Compound 202 (0.05, 0.10, 0.30, and 1.00 mg/kg) in the same model using the same protocol (6 rats per group). […] We also investigated the affect of oral dosing (10 mg/kg) of Compound 202 in the same model. For oral dosing, a 2.5 mg/mL suspension of Compound 202 was prepared in Vehicle A. Rats were orally administered 4 mL/kg of that suspension.

[2] = test system: TNF-α (degradation of IkB in HeLa cells or A431 cells); assay: Human cell-based assay: inhibition of TNF-α induced degradation of IkB; details: for inhibition at 5 µM: read-out: Inhibition at Various Compound Concentrations, 5 μM; for inhibition at 10 µM: read-out: Inhibition at Various Compound Concentrations, 10 μM
[3] = read-out: Activity (IC50, inhibition of TNFα binding to TNFα R1/Fc)
[4] = Table 4, 1 mg/kg IV, 2 h post-carrageenan
[5] = Table 4, 1 mg/kg IV, 4 h post-carrageenan
[6] = Table 4, 1 mg/kg IV, 6 h post-carrageenan
[7] = 5 μM compound, HeLa or A431 cells
[8] = 10 μM compound, HeLa or A431 cells
[9] = Table 7, 1 mg/kg IV, 2 h post-carrageenan
[10] = Table 7, 1 mg/kg IV, 4 h post-carrageenan
[11] = Table 7, 1 mg/kg IV, 6 h post-carrageenan

| SMILES | IC50 [1, 3] [µM] | inhibition at 5 µM [2, 7] [%] | inhibition at 10 µM [2, 8] [%] | Change in Paw Volume (rat paw edema model; [9]) [mL] | Change in Paw Volume (rat paw edema model; [10]) [mL] | Change in Paw Volume (rat paw edema model; [11]) [mL] | other results |
| --- | --- | --- | --- | --- | --- | --- | --- |
| O=C1CCC(=O)N[C@H](Cc2cccs2)C(=O)N[C@@H](Cc2ccc(-c3ccccc3)cc2)C(=O)N[C@H](Cc2ccccc2)C(=O)N[C@H](C(=O)N[C@@H](Cc2ccccc2)C(=O)O)Cc2ccc(cc2)N1 [Compound 10] ([d2Thi][Bip][dF][Phe(4-NH2)]F-OH; linker N-4 via Suc) | 10 to 30 | – | – | – | – | – | Change in Paw Volume (rat paw edema model; Table 3, 0.5 mg/kg IV, 2 h post-carrageenan): 0.54 ± 0.23 mL; Change in Paw Volume (rat paw edema model; Table 3, 0.5 mg/kg IV, 4 h post-carrageenan): 1.11 ± 0.31 mL; Change in Paw Volume (rat paw edema model; Table 3, 0.5 mg/kg IV, 6 h post-carrageenan): 1.23 ± 0.28 mL; inhibition at 25 µM ([2]; 25 μM compound, HeLa or A431 cells, read-out: Inhibition at Various Compound Concentrations, 25 μM): > 80% |
| O=C1CCC(=O)N[C@H](CCc2ccccc2)C(=O)N[C@@H](Cc2ccc(C(F)(F)F)cc2)C(=O)N[C@H](Cc2ccccc2)C(=O)N[C@H](C(=O)N[C@@H](Cc2ccccc2)C(=O)O)Cc2ccc(cc2)N1 [Compound 11] ([d(hPhe)][Phe(4-CF3)][dF][Phe(4-NH2)]F-OH; linker N-4 via Suc) | < 10 | 10 to 50 | 50 to 80 | – | – | – | Change in Paw Volume (rat paw edema model; [4]): 1.37 ± 0.16 mL; Change in Paw Volume (rat paw edema model; [5]): 1.43 ± 0.13 mL; Change in Paw Volume (rat paw edema model; [6]): 1.45 ± 0.08 mL |
| O=C1COc2ccc(cc2)C[C@@H](C(=O)N[C@@H](Cc2ccccc2)C(=O)O)NC(=O)[C@@H](CCc2ccccc2)NC(=O)[C@H](Cc2ccc(-c3ccccc3)cc2)NC(=O)[C@@H](Cc2cccs2)N1 [Compound 156] | – | – | – | 1.49 ± 0.24 | 1.51 ± 0.12 | 1.81 ± 0.16 | IC50 ([1]; Activity (IC50, inhibition of TNFα binding to TNFα R1/Fc)): < 10 µM; inhibition at 5 µM [2]: 50 to 80%; inhibition at 10 µM [2]: > 80% |

Now from value to compound, other results behind:

| IC50 [1, 3] [µM] | SMILES | inhibition at 5 µM [2, 7] [%] | inhibition at 10 µM [2, 8] [%] | Change in Paw Volume (rat paw edema model; [9]) [mL] | Change in Paw Volume (rat paw edema model; [10]) [mL] | Change in Paw Volume (rat paw edema model; [11]) [mL] | other results |
| --- | --- | --- | --- | --- | --- | --- | --- |
| < 10 | O=C1CCC(=O)N[C@H](Cc2cccs2)C(=O)N[C@@H](Cc2ccc(-c3ccccc3)cc2)C(=O)N[C@H](Cc2ccccc2)C(=O)N[C@H](C(=O)N[C@H](Cc2ccccc2)C(=O)O)Cc2ccc(cc2)N1 [Compound 33] ([d2Thi][Bip][dF][Phe(4-NH2)][dF]-OH; linker N-4 via Suc) | 10 to 50 | 50 to 80 | – | – | – | Change in Paw Volume (rat paw edema model; [4]): 1.10 ± 0.22 mL; Change in Paw Volume (rat paw edema model; [5]): 1.49 ± 0.11 mL; Change in Paw Volume (rat paw edema model; [6]): 1.46 ± 0.07 mL |
| < 10 | O=C(O)[C@H](Cc1ccccc1)NC(=O)[C@@H]1Cc2ccc(cc2)NC(=O)[C@H](O)[C@@H](O)C(=O)N[C@H](Cc2cccs2)C(=O)N[C@@H](Cc2ccc(-c3ccccc3)cc2)C(=O)N[C@H](Cc2ccccc2)C(=O)N1 [Compound 174] | < 10 | 10 to 50 | 1.22 ± 0.08 | 1.53 ± 0.13 | 1.70 ± 0.22 | – |
| > 100 | O=C(O)[C@@H]1Cc2ccc(cc2)NC(=O)[C@H](O)[C@@H](O)C(=O)N[C@@H](Cc2cccs2)C(=O)N[C@@H](Cc2ccc(-c3ccccc3)cc2)C(=O)N[C@@H](Cc2ccccc2)C(=O)N1 [Compound 273] | 10 to 50 | < 10 | 1.13 ± 0.09 | 1.52 ± 0.12 | 1.59 ± 0.16 | – |
| < 10 | O=C(O)[C@@H]1Cc2ccc(cc2)NC(=O)[C@H](O)[C@@H](O)C(=O)N[C@H](Cc2cccs2)C(=O)N[C@@H](Cc2ccc(-c3ccncc3)cc2)C(=O)N[C@H](Cc2ccccc2)C(=O)N1 [Compound 330] | > 80 | 10 to 50 | – | – | – | Change in Paw Volume (rat paw edema model; Table 6, 1 mg/kg IV, 2 h post-carrageenan): 1.20 ± 0.20 mL; Change in Paw Volume (rat paw edema model; Table 6, 1 mg/kg IV, 4 h post-carrageenan): 1.32 ± 0.17 mL; Change in Paw Volume (rat paw edema model; Table 6, 1 mg/kg IV, 6 h post-carrageenan): 1.33 ± 0.22 mL |
